Data taken from ChEMBL document CHEMBL1131407, “Synthesis and metabotropic glutamate receptor activity of a 2-aminobicyclo[3.2.0]heptane-2,5-dicarboxylic acid, a molecule possessing an extended glutamate conformation” (Bioorg Med Chem Lett, 1998).

Assays:
[1] = molecular target: Metabotropic glutamate receptor 6 (Homo sapiens) (UniProt O15303); experiment: Compound (300 uM) was evaluated for percentage agonist activity against human mGluR6 expressed in chinese hamster ovary cells; type: functional, cell-based
[2] = molecular target: Metabotropic glutamate receptor 1 (Homo sapiens) (UniProt Q13255); experiment: Compound (300 uM) was evaluated for percentage agonist activity against human mGluR1a expressed in chinese hamster ovary cells; type: functional, cell-based
Sequence of Metabotropic glutamate receptor 1 (Homo sapiens) (Q13255 19-1194 limits assumed): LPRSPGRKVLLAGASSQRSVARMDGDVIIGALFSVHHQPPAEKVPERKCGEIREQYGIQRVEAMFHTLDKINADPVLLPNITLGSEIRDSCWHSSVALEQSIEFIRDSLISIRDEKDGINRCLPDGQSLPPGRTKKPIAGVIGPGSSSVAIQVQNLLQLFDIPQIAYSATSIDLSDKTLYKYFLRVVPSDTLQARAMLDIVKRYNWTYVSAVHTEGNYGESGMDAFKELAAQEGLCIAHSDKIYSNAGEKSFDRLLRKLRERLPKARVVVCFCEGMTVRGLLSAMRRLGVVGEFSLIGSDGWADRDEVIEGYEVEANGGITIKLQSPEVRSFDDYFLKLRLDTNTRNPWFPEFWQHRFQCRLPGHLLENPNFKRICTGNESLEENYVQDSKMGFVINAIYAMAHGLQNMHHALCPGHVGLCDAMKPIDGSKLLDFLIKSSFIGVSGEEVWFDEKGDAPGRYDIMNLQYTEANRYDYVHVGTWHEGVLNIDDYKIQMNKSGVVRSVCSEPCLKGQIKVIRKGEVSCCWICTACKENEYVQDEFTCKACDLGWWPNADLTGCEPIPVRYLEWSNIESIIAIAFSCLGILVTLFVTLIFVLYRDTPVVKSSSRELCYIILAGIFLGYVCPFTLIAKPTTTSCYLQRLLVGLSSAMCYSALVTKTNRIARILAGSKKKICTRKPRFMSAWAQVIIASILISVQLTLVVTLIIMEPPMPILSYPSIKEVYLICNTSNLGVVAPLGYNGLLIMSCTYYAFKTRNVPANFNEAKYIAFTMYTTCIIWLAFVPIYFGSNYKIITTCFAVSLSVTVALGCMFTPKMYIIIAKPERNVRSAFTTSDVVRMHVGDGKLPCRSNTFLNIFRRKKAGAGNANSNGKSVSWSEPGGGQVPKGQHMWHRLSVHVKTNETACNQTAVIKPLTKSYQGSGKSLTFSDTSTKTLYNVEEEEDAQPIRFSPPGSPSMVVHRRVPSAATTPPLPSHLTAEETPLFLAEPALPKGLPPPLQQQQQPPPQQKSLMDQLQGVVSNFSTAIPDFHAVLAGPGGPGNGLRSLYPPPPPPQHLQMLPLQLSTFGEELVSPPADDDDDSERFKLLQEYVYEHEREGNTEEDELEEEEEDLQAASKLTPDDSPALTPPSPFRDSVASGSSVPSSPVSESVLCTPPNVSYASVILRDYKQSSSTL

Sequence of Metabotropic glutamate receptor 6 (Homo sapiens) (O15303 whole entry): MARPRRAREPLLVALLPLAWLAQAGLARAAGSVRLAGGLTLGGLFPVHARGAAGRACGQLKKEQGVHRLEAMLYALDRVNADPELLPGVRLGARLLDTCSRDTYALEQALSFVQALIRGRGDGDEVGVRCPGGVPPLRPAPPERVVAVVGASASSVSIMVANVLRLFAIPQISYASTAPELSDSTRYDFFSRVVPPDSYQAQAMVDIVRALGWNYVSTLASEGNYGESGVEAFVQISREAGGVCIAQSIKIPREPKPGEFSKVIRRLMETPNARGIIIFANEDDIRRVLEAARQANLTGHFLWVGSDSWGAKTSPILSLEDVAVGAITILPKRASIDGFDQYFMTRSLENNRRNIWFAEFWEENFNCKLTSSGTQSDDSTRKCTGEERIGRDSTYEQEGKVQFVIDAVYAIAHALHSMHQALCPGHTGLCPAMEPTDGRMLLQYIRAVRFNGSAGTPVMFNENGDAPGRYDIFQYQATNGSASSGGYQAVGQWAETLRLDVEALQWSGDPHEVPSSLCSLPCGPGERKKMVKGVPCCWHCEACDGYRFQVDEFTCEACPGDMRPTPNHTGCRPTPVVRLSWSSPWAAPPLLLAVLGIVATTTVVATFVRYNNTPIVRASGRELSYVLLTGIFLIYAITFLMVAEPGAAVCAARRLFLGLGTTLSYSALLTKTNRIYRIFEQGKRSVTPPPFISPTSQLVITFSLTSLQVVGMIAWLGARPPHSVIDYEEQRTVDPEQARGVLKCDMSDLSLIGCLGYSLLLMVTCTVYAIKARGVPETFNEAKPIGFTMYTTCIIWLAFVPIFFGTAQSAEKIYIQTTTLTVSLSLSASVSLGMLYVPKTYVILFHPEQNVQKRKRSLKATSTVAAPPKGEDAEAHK

- Max agonist activity [1]: 20%
- Max agonist activity [2]: 16%
Compound: N[C@@]1(C(=O)O)CCC2C[C@H](C(=O)O)C21 (some centres not stated)
